The record followed here is US6001832A, “[1,2,4]triazolo[4,3-a]quinoxalinone derivatives, their preparation and use” (Novo Nordiskals, priority 1994, dated 1999).

In one assay the target is AMPA type receptors. The experiment in a line: 3H-AMPA Binding (Test 1). The settings on record: displacement of 50% of the specific binding of 3H-AMPA (5 nM); rat cerebral cortical membrane homogenate, 0° C., 30 min, pH 7.1. As for the experimental part: (§1) The pharmacological properties of the compounds of the present invention can be illustrated by determining their capability for displacing radioactively labelled 2-amino-3-hydroxy-5-methyl-4-isoxazolepropionic acid (AMPA) from the AMPA type receptors.
The displacement activity of the compounds may be shown by determining the IC50 value which represents the concentration (μM) which causes a displacement of 50% of the specific binding of ^3 H-AMPA.
^3 H-AMPA Binding (Test 1)
500 μl of thawed rat cerebral cortical membrane homogenate in Tris-HCl (30 mM), CaCl2 (2.5 mM) and KSCN (100 mM) pH 7.1 were incubated at 0° C. for 30 min. with 25 μl ^3 H-AMPA (5 nM final concentration) and the test compound and buffer. Nonspecific binding was determined by incubation with L-glutamic acid (600 μM final concentration). The binding reaction was terminated by adding 5 ml of ice-cold buffer followed by filtration through Whatman GF/C glass fibre filters and 2×5 ml wash with ice-cold buffer. Bound radioactivity was measured by scintillation counting. IC50 was determined by Hill analysis of at least four concentrations of test compound.

Assay [1] has as its system quisqualic acid stimulated spreading depression in chicken retina. The experiment in a line: Spreading Depression (Test 2): quisqualic acid stimulated spreading depression in chicken retina. The assay is classed as cell-based. The settings on record: Gallus gallus, 0.25 h; 50% maximal inhibition of quisqualate (1 μg/ml) stimulated spreading depression in chicken retina; 15 min incubation with test compound, 26° C. On the procedure: as §1
The antagonism is measured by determining the IC50 value which represents the concentration which produces a 50% maximal inhibition of quisqualic acid stimulated spreading depression in chicken retina.
Spreading Depression (Test 2)
Chicks (3-10 days old) were decapitated, the eyes enucleated and sectioned along the equatorial plane. […]
The eyes were initially incubated in normal P.S.S. for 15-30 min. and then transferred to P.S.S. containing quisqualate (1 μg/ml). […] The time taken for an S.D. to start in each eye was measured.
After a further 15 min. of incubation in normal P.S.S. the eyes were transferred to normal P.S.S. containing the test compound and incubated for 15 min. […] The time taken for an S.D. to start in each eye was measured again. The eyes were then placed back in normal P.S.S. and after 15 min. the time taken for S.D. to start was measured again, in order to assess the degree of recovery from any drug effects. […]

In the case of `Cc1cn(-c2cc3c(cc2C(F)(F)F)[nH]c(=O)c2nnc(CP(=O)(O)O)n23)c(-c2ccccc2)n1` [Example 2, 8-(4-Methyl-2-phenyl-1H-imidazol-1-yl)-1-phosphonomethyl-7-trifluoromethyl[1,2,4]triazolo[4,3-a]quinoxalin-4(5H)-one], the IC50 was found to be 390 nM at AMPA type receptors and 400 nM in assay [1].
